Reference: patent US6495588B2, “Scytonemin and methods of using thereof” (The Regents of the University of California, priority 2000, dated 2002)

Tests used:
GST-Myt1 = target: T1, GST-Myt1 (Homo sapiens, UniProt Q99640); assay: GST-Myt1 autophosphorylation DELFIA assay; format: biochemical; conditions: 1 μM ATP
T1 construct: The Myt1 gene was truncated after amino acid 379 and just prior to the membrane-anchoring domain; made in house; host or cells: Sf9 (baculovirus, pFASTBAC)
T1 sequence (Q99640 1-379): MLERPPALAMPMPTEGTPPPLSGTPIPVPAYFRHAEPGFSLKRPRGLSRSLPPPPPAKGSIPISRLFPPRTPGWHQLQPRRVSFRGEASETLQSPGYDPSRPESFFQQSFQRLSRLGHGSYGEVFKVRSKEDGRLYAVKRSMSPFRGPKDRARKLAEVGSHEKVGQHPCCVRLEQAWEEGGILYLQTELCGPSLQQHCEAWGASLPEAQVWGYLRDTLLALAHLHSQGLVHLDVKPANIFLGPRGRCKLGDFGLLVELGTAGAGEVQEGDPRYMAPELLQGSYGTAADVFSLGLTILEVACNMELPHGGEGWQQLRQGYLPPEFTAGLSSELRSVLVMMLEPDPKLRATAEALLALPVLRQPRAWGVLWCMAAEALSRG
From the text: To determine the effect of SCY on GST-Myt1 activity, a rh-GST-Myt1 expression vector was constructed to include gst fused to the amino terminus of a truncated human Myt1 gene via a linker comprising a thrombin cleavage site. The Myt1 gene was truncated after amino acid 379 and just prior to the membrane-anchoring domain. The construct was cloned into the baculovirus expression system, pFASTBAC (Gibco-BRL, Gaithersburg, Md.).
Spodoptera frugiperda 9 (Sf9) cells were infected with the virus and grown for three days before purifying as described in Roshak et al. (2000) for GST-PLK1 and GST-cdc25C to 75% purity as determined by SDS-PAGE analysis and Coomassie Blue staining. Dissociative enhanced lanthanide fluorescence immunoassays (DELFIA) (Wallac OY, Turku, Finland) were performed in 50 μl/well with 0.25 μg GST-Myt1, in reaction buffer (50 mM HEPES, pH 7.4, 2 mM Mn(OAc)2, 1 μM ATP, 1 mM DTT (final reaction concentrations)), and SCY (1 nM to 10 μM final reaction concentration). […]
Reactions were allowed to proceed at room temperature with shaking for 20 minutes and were stopped with the addition of EDTA to give a final concentration of 20 mM, and the protein was allowed to bind to the wells for an additional 40 minutes. […] The plate was then read on the 1420 VICTOR plate counter from Wallac, Inc.

[1] = system: rheumatoid synovial fibroblasts (RSFs); assay: [3H]-thymidine incorporation assay, PDGF-BB stimulated rheumatoid synovial fibroblasts; format: cell-based, human; conditions: induced by platelet-derived growth factor (1 nM PDGF-BB); listed as SCY; read-out: IC50 rheumatoid synovial fibroblast proliferation
Procedure: To determine the effect of SCY on the proliferation of several cell types, proliferation was measured in response to growth factor or serum by tritiated thymidine uptake. Rheumatoid synovial fibroblasts (RSFs) obtained from Dr. Gene Mochan at PCOM (Philadelphia, Pa.), normal human lung fibroblasts (NHLFs) (Clonetics, San Diego, Calif.), human umbilical vein endothelial cells (HUVECs) (Clonetics, San Diego, Calif.), and Jurkat T cells (ATCC, Rockville, Md.) were plated in 96 well cell culture plates (Falcon, Franklin Lakes, N.J.). About 1.2×10^4 RSF cells/well and about 1×10^4 NHLF cells/well were plated in EMEM (Eagle's Minimum Essential Medium) (Sigma, St. Louis, Mo.) comprising 10 units penicillin-streptomycin (penstrep) (GibcoBRL, Grand Island, N.Y.) and 10% FBS. About 5×10^3 HUVEC cells/well were plated in CSC media (Cell Systems, Seattle, Wash.) with 10% FBS. Fibroblasts were allowed to adhere for about 6 to about 24 hours at 37° C., 5% CO2 and the media was changed to EMEM or CSC, 0.2% FBS and incubated for 24 hours. About 2×10^4 Jurkat T cells/well (ATCC, Rockville, Md.) were plated in RPMI (Gibco BRL, Grand Island, N.Y.), comprising 10% FBS and 10 units penstrep.
All cells were incubated with compound or vehicle (0.5% DMSO) for 15 minutes at room temperature. […] [^3H]-thymidine incorporation into the DNA was measured on a Packard Top-Count.

Jurkat T cells = assay: Apoptosis assay (TUNEL, flow cytometry); format: cell-based; conditions: 3 μM, 24 hours
Procedure: To determine the mechanism behind the ability of SCY to inhibit cell proliferation, about 2×10^5 Jurkat T cells/ml were treated with vehicle (negative control), 3 μM SCY, or 3 μM camptothecin (positive control) a (0.1% DMSO[final]) and incubated at 37° C., 5% CO2 for 24 hours. As a positive control, camptothecin, a DNA topoisomerase inhibitor, was used because of its ability to arrest Jurkat cells at the G2/M phase of the cell cycle and induce the cells to undergo apoptosis. The cells were fixed in 1% paraformaldehyde, washed once with PBS, and stored in 70% EtOH at−20° C. Apoptosis was measured using the Promega Apoptosis Detection System (Promega, Madison, Wis.) an adapted TUNEL staining method.
The cells were washed two times with 5 ml PBS 2% FBS, then transferred to a microcentrifuge tube in 1 ml PBS, 0.2% Triton×100, 5 mg/ml BSA and incubated on ice for 5 minutes. Samples were spun, PBS solution removed, then resuspended in 80 μl equilibration buffer from Promega kit and incubated at room temperature for 10 minutes. Then the samples were spun and the equilibration buffer removed. A nucleotide mix comprising 45 μl equilibration buffer, 5 μl nucleotide mix, 1 μl Tdt enzyme per sample, was used to resuspend each sample in the dark. The cells were incubated in the dark at 37° C. for 1 hour. The reaction was terminated by the addition of 20 mM EDTA. The samples were washed twice with 1 ml RNAse A and a small aliquot, about 50 μl, was viewed under a microscope. Cells were stained with fluoroscein and then counterstained with propidium iodide and analyzed for DNA content and fragmentation using a Becton-Dickinson FacsSort (Becton-Dickinson, San Jose, Calif.).

Substance: scytonemin
- IC50 (GST-Myt1): ~1000 nM
- IC50 [1]: ~1500 nM
- effect on cell cycle progression (Jurkat T cells): did not have any cell cycle specific effect
- induction of apoptosis (DNA fragmentation) (Jurkat T cells): cause the cells to undergo apoptosis in all phases of the cell cycle
